# Entries after “also recorded” stand apart in the source; their conditions may differ.
# Columns and labels:
# adult zebrafish = assay: Shoaling test in adult zebrafish; format: in vivo, zebrafish (Danio rerio)
# Method: Adult and larval behavioural testing was performed between 9 AM and 4 PM. All fish were fed prior to and after experiments, and larvae were also given an additional feed at midday. Adult fish were of a 1:1 sex ratio, and focal fish and stimulus fish were size-matched. Adult fish and shoals were filmed using a web camera and Debut Video Capture Software (NCH Software, Greenwood Village, USA), and videos were analysed using EthoVision version 11 (Noldus, Wageningen, the Netherlands).
# The shoaling test was performed to examine the effects of L-368,899 on social group behaviour, a test widely used to assess shoaling sensitivity to various drugs and experimental settings[75],[76].
# The experimental setup comprised a 1.8 L trapezoidal tank (height 16 cm × length at the top 26 cm × length at the bottom 23 cm × width 6 cm, Aquaneering, San Diego, USA). Fifty-six zebrafish were randomly grouped into shoals of four (two males and two females) three days prior to the experiment. […] On day four all shoal members were weighed and injected with either fish Ringer’s (n = 6 shoals) or L-368,899 (n = 7 shoals), using the same procedure described above. Shoals were returned to their respective holding tanks for one hour to recover, and then gently transferred to test tanks, in which they were filmed for 15 minutes.
# All data for the social preference and novel tank diving experiments in adults were extracted as processed means per minute from EthoVision. For the shoaling experiments, raw data was exported from EthoVision, and then post-processed by an in-house script written in Python 3.4, in order to compute IFD, NND, and FND as described elsewhere. For timelines, repeated measures analysis of variance (RM-ANOVA) was used. For pairwise comparisons of total means between groups, Student’s T-tests were used.
# larval zebrafish = assay: Social preference in larval zebrafish; format: in vivo, zebrafish (Danio rerio); details: 100 µM immersion 1 h
# Method: The social preference test for young zebrafish has been described elsewhere. In brief, experiments were performed in custom-built arenas; see Fig. 5, consisting of laser-cut 5 mm high white acrylic walls placed on transparent flooring with transparent acrylic partitions. The dimensions of each arena were 40 × 32 mm, and the chambers containing stimulus fish was 15 × 15 mm. The areas in front of these stimulus compartments were designated Social Area (where the stimulus was placed) or Non-Social Area (where the stimulus was not placed). The water depth was 5 mm, and water parameters matched the ones housing water parameters. Nine arenas were placed adjacent to each other on an infrared (IR) back-light diffusing both IR and white light (Noldus, Wageningen, the Netherlands), with a digital monochrome high resolution GigE camera overhead (Noldus, Wageningen, the Netherlands), and surrounded by an opaque enclosure.
# A 10 mM stock solution was prepared by dissolving L-368,899 in H2O (Milli-Q water purification system), and subsequently stored at −20 °C. The stock solution was diluted to a working concentration of 100 µM by addition of water adjusted to the same parameters kept in the fish facility. Larvae were immersed in 100 µM L-368,899 solution (treated fish) or in water matching housing conditions (control fish) for 1 hour prior to testing. Focal larvae were then transferred to test arenas and filmed for 15 minutes, with no stimulus present (acclimation period; AC). Following this, one stimulus larva was placed in a randomly selected stimulus chamber of each arena, and focal larvae were filmed for another 15 minutes (social cue period; SC). A total of 137 vehicle-treated fish and 109 antagonist-treated fish were tested, and after using the exclusion criteria described below, 87 vehicle-treated fish and 77 antagonist-treated fish were included in the statistical analyses.
# Larval results were analysed using a social preference index (SPI). SPI was calculated by subtracting the time a focal larva spent in the Non-Social Area from the time it spent in the Social Area, and then dividing the result by the total time the larva was tracked in the entire arena. […] SPI was calculated for each focal larva for the AC period and the SC period separately. […] All data was analysed using paired T-tests to investigate change within the control and treated groups, and Student’s T-tests to investigate difference between the groups for each phase.
# rodents = details: cited from earlier work
# Method: Intraperitoneal injections were conducted using a 1 mL U-100 BD MicroFine™ Insulin Syringe (Becton Dickinson France S.A.S., France). Post injection, animals were placed into their holding tanks for one hour to recover. […] Following this, focal fish were individually placed in the middle of the test tank and left ...
# OT receptor = details: cited from earlier work
# Description: Intriguingly, the non-peptidergic OT receptor antagonist L-368,8 ...
# zebrafish = system: zebrafish; parameters: method as in 4 sources, ref 42 = [42]; PMID 21956239; doi:10.1007/s00213-011-2482-2; 42. Braida D Neurohypophyseal hormones manipulation modulate social and anxiety-related behavior in zebrafish Psychopharmacology (Berl) 2012 220 319 330 10.1007/s00213-011-2482-2 21956239 ||| ref 44 = [44]; PMID 27247142; doi:10.1016/j.bbr.2016.05.059; 44. Zimmermann FF Gaspary KV Siebel AM Bonan CD Oxytocin reversed MK-801-induced social interaction and aggression deficits in zebrafish Behav Brain Res 2016 311 368 374 10.1016/j.bbr.2016.05.059 2724 ||| ref 51 = [51]; doi:10.1163/1568539x-00003261; 51. Lindeyer CM Langen EMA Swaney WT Reader SM Nonapeptide influences on social behaviour: effects of vasotocin and isotocin on shoaling and interaction in zebrafish Behaviour 2015 152 897 915 10.1163 ||| ref 27 = [27]; PMID 26347614; doi:10.3389/fncir.2015.00039; 27. Dreosti E Lopes G Kampff AR Wilson SW Development of social behavior in young zebrafish Front Neural Circuits 2015 9 39 10.3389/fncir.2015.00039 26347614 PMC4539524; details: cited from earlier work
# Description: Thus far, dopamine[56] and serotonin[57] in the mesolimbic system and excitation-inhibition balance[58] seem to play a prominent role in social investigation in rodents. Similarly, levels of dopamine and serotonin are modulated in socially interacting fish[59]–[61] and social preference behaviour decreases after treatment with a dopamine D1 receptor antagonist. […] In rodents, release of ... || (+ 1 further places)
structure (smiles),measurement,setting,value
"Cc1ccccc1N1CCN(S(=O)(=O)C[C@]23CC[C@H](C[C@@H]2NC(=O)[C@@H](N)CCS(C)(=O)=O)C3(C)C)CC1 [L-368,899]","Shoaling parameters vs vehicle, outlier vehicle shoal included","adult zebrafish; IFD, NND, FND, including outlier shoal",no significant differences
same,Social behaviour: Nearest neighbour distance,"adult zebrafish; adult shoaling, shoals of four, 100 µg per gram fish i.p., 1 h before 15 min test, mean ± SEM, n = 7 shoals, vehicle 3.3 ± 0.2",3.7 ± 0.1 cm
same,Social behaviour: Interfish distance,"adult zebrafish; adult shoaling, shoals of four, 100 µg per gram fish i.p., 1 h before 15 min test, mean ± SEM, n = 7 shoals, vehicle 5.9 ± 0.3",6.7 ± 0.2 cm
same,Social behaviour: Furthest neighbour distance,"adult zebrafish; adult shoaling, shoals of four, 100 µg per gram fish i.p., 1 h before 15 min test, mean ± SEM, n = 7 shoals, vehicle 8.7 ± 0.5",9.8 ± 0.2 cm
same,Locomotion: Velocity,"adult zebrafish; adult shoaling, shoals of four, 100 µg per gram fish i.p., 1 h before 15 min test, mean ± SEM, vehicle 3.6 ± 0.2, p = 0.30",3.2 ± 0.3 cm/s
same,Locomotion: Distance,"adult zebrafish; adult shoaling, shoals of four, 100 µg per gram fish i.p., 1 h before 15 min test, mean ± SEM, vehicle 207 ± 15, p = 0.37",186 ± 17 cm/min
same,"Shoaling, in words",adult zebrafish; adult zebrafish,potentially also shoaling behaviour; also recorded: tentative and small effect
same,"Activity parameters vs vehicle, shoaling test","adult zebrafish; average distance p = 0.37, average velocity p = 0.30",no significant differences
same,"Inter-fish distance (IFD) vs vehicle, outlier excluded","adult zebrafish; t(10) = 2.276, p = 0.046",significantly more spread out
same,"Nearest neighbour distance (NND) vs vehicle, outlier excluded","adult zebrafish; t(10) = 2.324, p = 0.042",significantly more spread out
same,"Social preference in larvae, in words",larval zebrafish,decreased social preference
same,Increase in SPI from acclimation to social cue,"larval zebrafish; t(76) = 0.177, p = 0.86, vehicle larvae significantly increased, p = 0.039",not present
same,SPI during the social cue period vs vehicle,"larval zebrafish; t(162) = 1,98, p = 0.049",significantly lower SPI
same,Social Preference Index (AC),"larval zebrafish; 3-week-old larvae, acclimation phase, mean ± SEM, n = 77, vehicle 0.06 ± 0.04",0.00 ± 0.05
same,Locomotion (AC): Velocity,"larval zebrafish; 3-week-old larvae, acclimation phase, mean ± SEM, n = 77, vehicle 0.28 ± 0.01",0.30 ± 0.02 cm/s
same,Locomotion (AC): Distance,"larval zebrafish; 3-week-old larvae, acclimation phase, mean ± SEM, n = 77, vehicle 249 ± 12",265 ± 14 cm/min
same,Social Preference Index (SC),"larval zebrafish; 3-week-old larvae, social cue phase, mean ± SEM, n = 77, vehicle 0.18 ± 0.05",0.01 ± 0.06
same,Behavioural effects one hour after treatment,rodents,robust behavioural effects
same,Inhibition of the OT receptor in mammals,OT receptor,specifically inhibit the mammalian OT receptor
same,"Social preference, compound by itself",zebrafish; adult zebrafish,did not decrease social preference
same,Social deficits following MK-801 exposure,zebrafish; zebrafish exposed to glutamate antagonist MK-801,did not reverse those deficits

# — article PMC7096398, “Oxytocin Receptors Regulate Social Preference in Zebrafish” (Scientific Reports, 2020)
